Measured values as given in patent US10919896B2, “Preparation and uses of pyrimidinone derivatives” (Cancer Research Technology Limited, priority 2016, dated 2021).

Biological target: Cdc7/Dbf4 (Homo sapiens, UniProt O00311)
Assay: Cdc7 Biochemical Assay Method 3: Cdc7/Dbf4 Enzyme TR-FRET Assay measuring pS40MCM2
Conditions: 1 μM ATP, read-out: Biochemical Method 3 (pIC50) (converted)
Method: This protocol describes a method for assaying a compounds' ability to inhibit Cdc7 activity by measuring pS40MCM2 levels in a Cdc7/Dbf4 Enzyme TR-FRET Assay.
2.5 nM Cdc7/Dbf4 was incubated with 100 nM of biotin-labelled peptide 35-TDALTS(pS)PGRDLP in the presence of 1 μM ATP at 25° C. for 120 minutes. The phosphorylation of the peptide was detected using TR-FRET. Anti-Mcm2 (pS40) antibody, Terbium anti-rabbit secondary antibody and Streptavidin-Alexa Fluor488 form the detection system.

Cdc7/Dbf4, sequence (O00311 whole entry): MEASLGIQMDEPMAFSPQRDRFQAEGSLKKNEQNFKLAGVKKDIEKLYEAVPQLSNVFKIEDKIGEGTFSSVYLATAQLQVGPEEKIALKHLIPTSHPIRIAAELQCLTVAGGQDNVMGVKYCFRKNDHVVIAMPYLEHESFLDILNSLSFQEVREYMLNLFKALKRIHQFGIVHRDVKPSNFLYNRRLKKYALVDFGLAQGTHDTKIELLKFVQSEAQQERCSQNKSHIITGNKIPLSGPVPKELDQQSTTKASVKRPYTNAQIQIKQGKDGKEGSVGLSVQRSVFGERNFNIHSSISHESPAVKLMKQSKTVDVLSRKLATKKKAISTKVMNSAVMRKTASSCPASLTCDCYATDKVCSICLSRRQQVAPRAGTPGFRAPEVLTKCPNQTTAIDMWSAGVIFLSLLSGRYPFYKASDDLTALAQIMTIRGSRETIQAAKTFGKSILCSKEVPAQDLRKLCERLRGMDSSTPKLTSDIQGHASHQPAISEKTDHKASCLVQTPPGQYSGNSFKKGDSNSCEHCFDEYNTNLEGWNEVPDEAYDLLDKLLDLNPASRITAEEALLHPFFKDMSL
Cdc7/Dbf4, sequence (Q9UBU7 whole entry partner): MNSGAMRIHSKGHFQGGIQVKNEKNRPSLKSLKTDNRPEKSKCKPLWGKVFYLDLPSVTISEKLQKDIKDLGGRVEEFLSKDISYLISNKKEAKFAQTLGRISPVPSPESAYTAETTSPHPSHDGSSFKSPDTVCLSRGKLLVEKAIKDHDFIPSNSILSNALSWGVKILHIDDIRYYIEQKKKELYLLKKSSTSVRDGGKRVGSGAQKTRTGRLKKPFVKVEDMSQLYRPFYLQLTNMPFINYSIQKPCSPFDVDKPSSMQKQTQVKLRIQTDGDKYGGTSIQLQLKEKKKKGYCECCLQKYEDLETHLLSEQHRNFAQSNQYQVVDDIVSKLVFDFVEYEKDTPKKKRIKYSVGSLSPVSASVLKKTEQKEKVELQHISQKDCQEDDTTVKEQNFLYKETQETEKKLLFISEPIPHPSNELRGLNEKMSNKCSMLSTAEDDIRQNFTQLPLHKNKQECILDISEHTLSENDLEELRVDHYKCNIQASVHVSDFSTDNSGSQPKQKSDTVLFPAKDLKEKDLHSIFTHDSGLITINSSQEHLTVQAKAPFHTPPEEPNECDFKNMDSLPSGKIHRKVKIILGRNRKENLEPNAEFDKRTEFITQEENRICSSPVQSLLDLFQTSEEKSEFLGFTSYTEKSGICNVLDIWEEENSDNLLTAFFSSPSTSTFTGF

Row | SMILES | IC50 [nM]
1 | CC(C)NC(=O)C1CCN(c2nc(-c3ccnc(F)c3)[nH]c(=O)c2Cl)CC1 [Compound 255] | 7.08
2 | O=C(NCCO)C1CCN(c2nc(-c3ccnc(F)c3)[nH]c(=O)c2Cl)CC1 [Compound 256] | 2
3 | CCNC(=O)C1CCN(c2nc(-c3ccnc(F)c3)[nH]c(=O)c2Cl)CC1 [Compound 257] | 6.03
4 | O=c1[nH]c(-c2ccnc(F)c2)nc(N2CCCC23CCNC3)c1Cl (centres unmarked) [Compound 259] | 2.82
5 | O=c1[nH]c(-c2ccnc(F)c2)nc(N2CCCC23CCNCC3)c1Cl [Compound 263] | 11
6 | O=c1[nH]c(-c2ccnc(F)c2)nc(N2CCCC3NCCCC32)c1Cl (centres unmarked) [Compound 264] | 1.58
7 | CN1CCN(C2CCN(c3nc(-c4ccnc(F)c4)[nH]c(=O)c3Cl)CC2)CC1 [Compound 265] | 4.07
8 | CCN(c1nc(-c2ccnc(F)c2)[nH]c(=O)c1Cl)C1CCOCC1 [Compound 266] | 36.3
9 | CN(c1nc(-c2ccnc(F)c2)[nH]c(=O)c1Cl)[C@H]1CCCNC1 [Compound 267] | 3.89
10 | CN(c1nc(-c2ccnc(F)c2)[nH]c(=O)c1Cl)[C@@H]1CCCNC1 [Compound 268] | 4.27
11 | O=c1[nH]c(-c2ccnc(F)c2)nc(N2CCn3cnnc3C2)c1Cl [Compound 269] | 0.525
12 | CC(C)c1nnc2n1CCN(c1nc(-c3ccnc(F)c3)[nH]c(=O)c1Cl)C2 [Compound 270] | 20.9
13 | CC(=O)N[C@H]1CCN(c2nc(-c3ccnc(F)c3)[nH]c(=O)c2Cl)C1 [Compound 274] | 5.01
14 | O=c1[nH]c(-c2ccnc(F)c2)nc(N2CCCC2)c1Cl [Compound 276] | 6.31
15 | C[C@H]1CCCN1c1nc(-c2ccnc(F)c2)[nH]c(=O)c1Cl [Compound 278] | 14.8
16 | C[C@H]1CCCCN1c1nc(-c2ccnc(F)c2)[nH]c(=O)c1Cl [Compound 280] | 0.871

The next lines start with the values.

Row | IC50 [nM] | SMILES
17 | 5.37 | CO[C@H]1CCCN(c2nc(-c3ccnc(F)c3)[nH]c(=O)c2Cl)C1 [Compound 283]
18 | 9.12 | O=c1[nH]c(-c2ccnc(F)c2)nc(N2CCOC(COc3ccccc3)C2)c1Cl (centres unmarked) [Compound 285]
19 | 19.1 | Nc1ccc(Oc2nc(-c3ccnc(F)c3)[nH]c(=O)c2Cl)cc1 [Compound 287]
20 | 0.933 | O=C1CCN(c2nc(-c3ccnc(F)c3)[nH]c(=O)c2Cl)CCN1 [Compound 288]
21 | 95.5 | CN(Cc1ccccc1)c1nc(-c2ccnc(F)c2)[nH]c(=O)c1Cl [Compound 289]
22 | 355 | O=c1[nH]c(-c2ccnc(F)c2)nc(NCc2ccccc2)c1Cl [Compound 290]
23 | 4.17 | O=c1[nH]c(-c2ccnc(F)c2)nc(N2CCn3c(nnc3C(F)(F)F)C2)c1Cl [Compound 291]
24 | 11.5 | O=c1[nH]c(-c2ccnc(F)c2)nc(N2CCOC3(CCOCC3)C2)c1Cl [Compound 292]
25 | 182 | O=c1[nH]c(-c2ccnc(F)c2)nc(OCc2ccccc2)c1Cl [Compound 294]
26 | 0.891 | O=c1[nH]c(-c2ccnc(F)c2)nc(N2CCN(c3nc[nH]n3)CC2)c1Cl [Compound 295]
27 | 6.46 | O=c1[nH]c(-c2ccnc(F)c2)nc(N2CCCN(CC(F)(F)F)CC2)c1Cl [Compound 299]
28 | 25.1 | CC1CN(C)CCCN1c1nc(-c2ccnc(F)c2)[nH]c(=O)c1Cl (centres unmarked) [Compound 302]
29 | 2 | O=c1[nH]c(-c2ccnc(F)c2)nc(OC2CCOCC2)c1Cl [Compound 305]
30 | 2.09 | O=c1[nH]c(-c2ccnc(F)c2)nc(N2CCN[C@H](C3(O)CC3)C2)c1Cl [Compound 311]
31 | 14.5 | N[C@@H]1CCN(c2nc(-c3ccnc(F)c3)[nH]c(=O)c2Cl)C1 [Compound 324]
32 | 11.2 | NC1CN(c2nc(-c3ccnc(F)c3)[nH]c(=O)c2Cl)C1 [Compound 325]
33 | 6.61 | CC(C)[C@@H]1CN(c2nc(-c3ccnc(F)c3)[nH]c(=O)c2Cl)CCN1 [Compound 327]
34 | 0.617 | O=c1[nH]c(-c2ccnc(F)c2)nc(OC2CCNCC2)c1Cl [Compound 329]
35 | 0.955 | O=c1[nH]c(-c2ccnc(F)c2)nc(O[C@@H]2CCCNC2)c1Cl [Compound 330]
